Measured values reported in PubChem BioAssay AID1845216 (Molecular Pharmacology Branch, DTP, NCI, 2023).
Values joined by “and” are separate entries in the source; they are usually repeats but may differ in a detail not shown here. Equal values may be shown once.

Test system: SW 982 tumor spheroid viability
Assay: Anticancer human tumor SW 982 cell line growth inhibition;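 further: spheroids exposed to compound for 7 days before readout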
Conditions: spheroids with HUVEC and MSC; for viability, T/C: stronger effect = lower value
Description: Multicellular complex tumor spheroid response to DNA repair inhibitors in combination with DNA-damaging drugs
This study explores the anticancer activities of DNA-damaging drugs and inhibitors of DNA damage repair, both as single agents and in combinations. Complex tumor spheroids comprised of malignant cells, endothelial cells and mesenchymal stem cells served as an in vitro model for human solid tumors. This model system incorporates physiologically relevant features and patient-derived or established malignant cell lines with clinically relevant genetic alterations from many tumor types. Twenty-six patient-derived or established malignant cell lines were evaluated representing sarcoma, melanoma, small cell lung cancer (SCLC), non-small cell lung cancer (NSCLC), as well as bladder, ovarian and pancreatic cancers. The concentration ranges selected for each drug and investigational agent were based upon clinically achievable concentrations if the clinical Cmax of the agent was known.
Compounds. The drugs and compounds olaparib (NSC753686), talazoparib (NSC767125), berzosertib (NSC777718), elimusertib (NSC800525), nedisertib (NSC802822), VX-984 (NSC792969), AZD-1390 (NSC803789), temozolomide (NSC362856), topotecan (NSC609699), trabectedin (NSC813783), staurosporine (NSC755774), and gemcitabine (NSC613327) were obtained from the National Cancer Institute (NCI) Developmental Therapeutics Program Chemical Repository. The FDA-approved anticancer drug set is available from the Developmental Therapeutics Program at https://dtp.cancer.gov/organization/dscb/obtaining/available_plates.htm. […] The stock solutions were prepared in dimethyl sulfoxide (DMSO, Sigma-Aldrich, St. Louis, MO, cat. D2650) at 400-fold the tested concentration and stored at -70 degrees C. Prior to their use, the stock solutions were diluted in fresh medium and the final DMSO concentration in the assay was 0.25% (v/v). All drugs and investigational agents were tested over a range starting from a high concentration at or near the clinical Cmax and decreasing in half-log increments. If the clinical Cmax for an agent had not been determined, the highest concentration tested was 10 microM.
Cell Lines. The patient-derived cancer cell (PDC) lines: 156681-154-R-J1-PDC, 283228-195-R-J1-PDC, 287954-098-R-J1-PDC, 292921-168-R-J2-PDC, 349418-098-R-PDC, 425362-245-T-J1-PDC, 556581-035-R-J1-PDC, and BL0293-F563-PDC were received from the NCI Patient-Derived Models Repository (PDMR, https://pdmr.cancer.gov). The established cell lines HS-SY-2 (RRID:CVCL_8719), MPNST, and SYO-1 (RRID:CVCL_7146) were obtained from the Sloan Kettering Institute. The alveolar soft parts sarcoma cell line ASPS-1 (RRID:CVCL_S738) was established at the NCI and grown from internal seed stocks. The following established cell lines were purchased from the American Type Culture Collection (ATCC, Manassas, VA): G-401 (ATCC, cat. CRL-1441, RRID:CVCL_0270), SW982 (ATCC, cat. HTB-93, RRID:CVCL_1734), VA-ES-BJ (ATCC, cat. CRL-2138, RRID:CVCL_1785), NCI-H719 (ATCC, cat. CRL-5837, RRID:CVCL_1582), NCI-H196 (ATCC, cat. CRL-5823, RRID:CVCL_1509), NCI-H841 (ATCC, cat. CRL-5845, RRID:CVCL_1595), NCI-H1618 (ATCC, cat. CRL-5879, RRID:CVCL_1480), NCI-H1876 (ATCC, cat. CRL-5902, RRID:CVCL_1503), DMS 114 (ATCC, cat. CRL-2066; RRID:CVCL_1174), NCI-H211 (ATCC, cat. CRL-5824; RRID:CVCL_1529), and SW 1271 (ATCC, cat. CRL-2177, RRID:CVCL_1716). The small cell lung cancer cell line COR-L88 was purchased from Sigma-Aldrich (cat. 92031917-1VL, RRID:CVCL_1141). The non-small cell lung cancer cell lines NCI-H226 (RRID:CVCL_1544) and NCI-H322M (RRID:CVCL_1557) were established at the NCI and grown from internal seed stocks. Pooled donor human umbilical vein endothelial cells (HUVEC, Lonza, cat. CC-2519) and human mesenchymal stem cells (hMSC, Lonza, cat. PT-2501) were purchased from Lonza (Walkersville, MD).
Cell Culture. All cells were maintained in an incubator at 37 degrees C and 5% CO2 with 95% humidity. […]

[1] = compound alone, run of 12/02/2019
[2] = compound alone, run of 12/12/2019

SMILES | viability, T/C (compound 0.0316 µM) | viability, T/C (compound 0.1 µM) | viability, T/C (compound 0.316 µM) | viability, T/C (compound 1 µM) | viability, T/C (compound 3.16 µM) | viability, T/C (compound 10 µM) | IC50 (curve of compound) | viability, T/C (compound 0.00949 µM) | viability, T/C (compound 0.03 µM) | viability, T/C (compound 0.0949 µM) | viability, T/C (compound 0.3 µM) | viability, T/C (compound 0.949 µM) | viability, T/C (compound 3 µM) | also measured
CC(C)n1c(=O)n(C)c2cnc3cc(F)c(-c4ccc(OCCCN5CCCCC5)nc4)cc3c21 | 99% and 107% and 96.4% | 87.8% and 104% and 101% | 91.9% and 96% and 90.8% | 87% and 91.9% and 71.7% | 68.2% and 74.7% and 61.6% | 34.8% and 48.2% and 35.8% | 5950 nM and 9440 nM and 4930 nM | – | – | – | – | – | – | –
CC1COCCN1c1cc(-c2ccnn2C)c2ccnc(-c3ccn[nH]3)c2n1 (stereo not given) | 27.4% and 44.4% and 38.4% | 20.4% and 25.4% and 17.1% | 16.2% and 17.9% and 12.3% | 13.2% and 15.2% and 10.5% | 20% and 15.6% and 11% | 22.1% and 22.6% and 14.1% | < 31.6 nM | – | – | – | – | – | – | –
CC[C@@]1(O)C(=O)OCc2c1cc1n(c2=O)Cc2cc3c(CN(C)C)c(O)ccc3nc2-1 | – | – | – | – | – | – | – | 87.9% [middle of 10 runs] | 81.2% [middle of 10 runs] | 70.1% [middle of 10 runs] | 51.5% [middle of 10 runs] | – | – | viability, T/C (compound 0.003 µM): 93.7% [middle of 10 runs]; IC50 [1]: > 300 nM and 283 nM; IC50 [2]: > 300 nM and 252 nM and 286 nM
CNCc1ccc(-c2cc(-c3nc(-c4ccc(S(=O)(=O)C(C)C)cc4)cnc3N)on2)cc1 | – | – | – | – | – | – | 263 nM and 341 nM and 205 nM | 94.4% and 97.7% and 104% | 94.6% and 94.9% and 100% | 78.7% and 84% and 84.3% | 43.7% and 49.3% and 31.1% | 28% and 32.8% and 19.9% | 13.5% and 17.2% and 2.19% | –
COc1cc(C)[nH]c(=O)c1CN1CCc2c(Cl)cc(C(OC)C3COC3)c(Cl)c2C1=O (stereo not given) | 72.5% and 105% and 108% | 94.6% and 111% and 95.2% | 100% and 109% and 89.6% | 108% and 107% and 93.8% | 113% and 110% and 96.4% | 94.8% and 100% and 98.8% | > 10000 nM | – | – | – | – | – | – | –
COc1cc2c(cc1O)CCNC21CSC2c3c(OC(C)=O)c(C)c4c(c3C(COC1=O)N1C(O)C3Cc5cc(C)c(OC)c(O)c5C(C21)N3C)OCO4 (stereo not given) | – | – | – | – | – | – | – | – | – | – | – | – | – | viability, T/C (compound 0.003 µM): 0.57% [middle of 10 runs]; IC50 [2]: 0.667 nM [middle of 10 runs]
COc1ccc([C@@H](O)c2cc(-c3ncnc4cc(N5CCOCC5)ccc34)c(F)cc2Cl)nn1 | 88.1% and 102% and 107% | 87.4% and 93.8% and 101% | 90.2% and 97.4% and 99.4% | 89.2% (2×) and 98.7% | 90.2% and 85.7% and 95.6% | 57.1% and 67% and 70.2% | > 10000 nM | – | – | – | – | – | – | –
Cc1cc(C)c(CNC(=O)c2cc(-c3ccc(CN4CCOCC4)cc3)cc3c2cnn3C2CCCC2)c(=O)[nH]1 | 111% and 101% and 106% | 99.1% and 105% and 100% | 97.4% and 99.9% and 105% | 102% and 99.6% and 105% | 95.3% and 98.8% and 82% | 60.5% and 58.6% and 69% | > 10000 nM | – | – | – | – | – | – | –
Cc1sc2c(c1C)C(c1ccc(Cl)cc1)=NC(CC(=O)Nc1ccc(O)cc1)c1nnc(C)n1-2 (stereo not given) | – | – | – | – | – | – | 277 nM and 490 nM and 282 nM | 102% (2×) and 124% | 105% and 104% and 90.7% | 79.4% and 83.4% and 72.8% | 48.1% and 59.7% and 50.1% | 35.9% and 35.4% and 29.1% | 29.3% and 33.5% and 24.2% | –
Cn1ncnc1[C@H]1c2n[nH]c(=O)c3cc(F)cc(c23)N[C@@H]1c1ccc(F)cc1 | – | – | – | – | – | – | > 3000 nM | 80.9% and 90% and 94.8% | 93.7% and 94.9% and 97.7% | 88.3% and 90.8% and 91.5% | 77.9% and 87.9% and 79.2% | 82.8% and 80.2% and 81.8% | 75.7% and 82.9% and 62.9% | –
Cn1nnc2c(C(N)=O)ncn2c1=O | – | – | – | 96.1% [middle of 10 runs] | 90.9% [middle of 10 runs] | 79.1% [middle of 10 runs] | – | – | – | – | – | – | – | viability, T/C (compound 31.6 µM): 69.1% [middle of 10 runs]; viability, T/C (compound 100 µM): 57.1% [middle of 10 runs]; IC50 [1]: > 100000 nM
O=C(c1cc(Cc2n[nH]c(=O)c3ccccc23)ccc1F)N1CCN(C(=O)C2CC2)CC1 | – | – | – | – | – | – | 24700 nM and 15800 nM and 9440 nM | – | – | 99.7% and 104% and 98.4% | 102% and 97.7% and 100% | 96.9% and 88.7% and 98.6% | 79.8% and 87.7% and 85.5% | viability, T/C (compound 9.49 µM): 63.3% and 54.4% and 49.8%; viability, T/C (compound 30 µM): 47.1% and 43.4% and 46.1%
[2H]c1nc(C)nc([2H])c1-c1cc(NC[C@@H](C)c2cccc3c(C(=O)NC)ccnc23)ncn1 | 80.2% and 102% and 103% | 91.6% and 101% and 97.5% | 94% and 103% and 107% | 96.9% and 96.7% and 114% | 103% and 101% and 111% | 103% and 94.8% and 108% | > 10000 nM | – | – | – | – | – | – | –
